# System: L1210/5-FU leukemia
# Experiment: Therapeutic activity in DBA/2N mice with 5-FU resistant L1210 leukemia
# Format: in vivo, mouse (DBA/2N female)
# Details: for Median survival: control 9; for Mean ± SD survival: control 9.25 ± 0.2
# Experimental: In conducting the evaluations, the activity was tested against intraperitoneal (i.p.) implanted leukemia in mice.
# DBA/2N female mice (20 g) were implanted i.p. with 1×10^6 L1210 leukemia cells on day 0. Mice were weighed and inspected for tumor growth and survival daily. […] Dosages varied from 1 to 800 mg/kg/day (mkd).
# Survival time was measured in days after tumor implantation. % ILS (increase in life span) was based on mean survival.
# Testing was followed as described in the NCI protocol and evaluation by comparison of median survival time (ST) of the treated animals to that of the control animals by the percentage increase in % ILS.
# Drug resistant L1210 leukemia cell sublines were obtained from the National Cancer Institute. […] Eight mice were used as controls and five mice for each drug dosage group. Drugs were administered i.p. once per day on days 1, 2, 3, 4 and 5.
smiles,measurement,setting,value
"COC1OC[C@@H](OC(C)=O)[C@@H](OC(C)=O)[C@]1(F)n1ccc(=O)[nH]c1=O (stereo partly drawn) [compound 85024, Methyl 3,4-di-0-acetyl-2-deoxy-2(R)-[1H,3H-2,4-dioxo-1-pyrimidinyl]-2-fluoro-α-D-arabinopyranoside [5a] and methyl 3,4-di-0-acetyl-2-deoxy-2(R)-[1H,3H-2,4-dioxo-1-pyrimidinyl]-2-fluoro-β-D-arabinopyranoside [6a]]",Mean Animal Weight,100 mkd × 5 i.p.,20.6 g
same,Survival Range,100 mkd × 5 i.p.,9 to 12 days
same,% ILS (increase in life span),"100 mkd × 5 i.p., P <.05",22%
same,Median survival,100 mkd × 5 i.p.,11 days
same,Mean ± SD survival,100 mkd × 5 i.p.,10.6 ± .5 days
same,Mean Animal Weight,200 mkd × 5 i.p.,20.2 g
same,Survival Range,200 mkd × 5 i.p.,9 to 11 days
same,% ILS (increase in life span),"200 mkd × 5 i.p., P 0.1",11%
same,Median survival,200 mkd × 5 i.p.,10 days
same,Mean ± SD survival,200 mkd × 5 i.p.,10 ± 0.4 days
same,% ILS (increase in life span),500 mkd × 5 i.p.,-34%
same,Mean Animal Weight,500 mkd × 5 i.p.,15.9 g
same,Survival Range,500 mkd × 5 i.p.,6 to 7 days
same,Median survival,500 mkd × 5 i.p.,6 days
same,Mean ± SD survival,500 mkd × 5 i.p.,6.4 ± 0.2 days

# From patent publication US4918056A, “2-substituted arabinopyranosyl nucleosides and nucleotides” (priority 1986, dated 1990)
